The values below come from publication PMC4076632, “VAV3 mediates resistance to breast cancer endocrine therapy” (Breast Cancer Research : BCR, 2014).

One may read the Ki as a dissociation constant, usually derived from enzyme kinetics or from competition with a known ligand.

This assay concerns the target T1, estrogen receptor α (ERα) (Homo sapiens, UniProt P03372).
T1 construct: gene ESR1
T1 sequence (P03372 1-595): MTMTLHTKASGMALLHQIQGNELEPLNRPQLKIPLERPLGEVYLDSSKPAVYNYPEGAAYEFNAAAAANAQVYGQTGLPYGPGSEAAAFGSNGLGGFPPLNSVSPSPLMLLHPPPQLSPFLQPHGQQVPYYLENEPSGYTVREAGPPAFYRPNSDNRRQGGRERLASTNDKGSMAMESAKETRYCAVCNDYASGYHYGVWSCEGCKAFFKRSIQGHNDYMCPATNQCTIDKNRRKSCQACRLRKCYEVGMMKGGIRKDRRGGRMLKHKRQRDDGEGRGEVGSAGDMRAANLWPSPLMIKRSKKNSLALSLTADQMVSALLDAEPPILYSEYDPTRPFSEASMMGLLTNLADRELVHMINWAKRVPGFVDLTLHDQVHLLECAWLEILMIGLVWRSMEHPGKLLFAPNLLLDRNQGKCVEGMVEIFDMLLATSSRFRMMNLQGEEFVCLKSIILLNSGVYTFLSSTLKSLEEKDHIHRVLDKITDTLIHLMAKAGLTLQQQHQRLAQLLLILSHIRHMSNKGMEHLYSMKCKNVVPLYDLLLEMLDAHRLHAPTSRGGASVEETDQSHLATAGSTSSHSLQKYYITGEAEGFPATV
As to the kind of experiment: ERα agonist fluoligand competition assay (Cerep) with fluorescein-labeled estradiol. It counts as binding.

Regarding `OCc1ccc(-c2nn(Cc3ccccc3)c3ccccc23)o1` [YC-1, 3-(5′-hydroxymethyl-2′-furyl)-1-benzylindazole], the affinity corresponds to a Ki of 26 µM.
